Patent US12310929B2, “Use of rasagiline for the treatment of restless legs syndrome” (TEVA PHARMACEUTICAL INDUSTRIES, LTD., priority 2006, dated 2025)
Like-named read-outs stand apart in the source and are kept apart here.

Key:
RLS subjects [1] = settings: for IRLS Total (Absolute Change) Mean / IRLS Total (Absolute Change) Median / IRLS Total (Percent Change) Mean / IRLS Total (Percent Change) Median / IRLS Total Mean / IRLS Total Median: rasagiline 1 mg/day oral
Protocol: (§1) This was the first clinical study in which rasagiline was administered to RLS subjects. The dosage regimen of 1 mg/day rasagiline was chosen based on the optimal dosage regimen for the symptomatic treatment of PD. […] Therefore, in the event that a subject could not tolerate the 1 mg daily dose of rasagiline, a daily dose of 0.5 mg rasagiline was permitted. Rasagiline was administered orally as a tablet. Both the 1 mg and 0.5 mg rasagiline tablets were beveled round tablets, flat, white to off-white, scored on one side, plain on the other side. Teva Pharmaceutical Industries Ltd. was responsible for the manufacture and primary packaging of study medications according to current Good Manufacturing Practice (cGMP) principles and guidelines applicable to investigational medicinal products.
IRLS (International Restless Legs Scale)
The IRLS scale is comprised of 10 items designed to assess the severity of sensory and motor symptoms, sleep disturbance, daytime somnolence, and impact on activities of daily living and mood associated with RLS. All items receive a grade in the range 0 to 4 (0=absence of a problem, 4=very severe problem) giving a maximum score of 40.
The investigator scored subjects on the IRLS at all scheduled study visits. The primary efficacy endpoint was based on the change from baseline to weeks 2, 4, and 8 in IRLS scores.
Each of 10 items were graded on a scale between 0 and 4 where 0 denotes the absence of a problem, and 4 a very severe problem.

RLS subjects [2] = settings: for IRLS QoL Total (Absolute Change) Mean / IRLS QoL Total (Absolute Change) Median / IRLS QoL Total (Percent Change) Mean / IRLS QoL Total (Percent Change) Median / IRLS QoL Total Mean / IRLS QoL Total Median: rasagiline 1 mg/day oral
Protocol: as §1
The Restless Leg Syndrome Quality of Life questionnaire (RLS QoL) assesses the impact of RLS on daily life, emotional well-being, social life and work life. It is an 18-item questionnaire with a total score ranging 0 to 100. […] The lower the score, the greater the impact of RLS on quality of life.
The RLS QoL questionnaire was completed by the investigator at the baseline and Week 4, and 8 visits. The change from baseline to each post-baseline study visit was calculated as an additional efficacy endpoint.

[3] = test system: patients with moderate to severe primary Restless Legs Syndrome; test: Placebo-controlled, double-blind, randomized clinical test in primary RLS (Example 8)

C#CCN[C@@H]1CCc2ccccc21 [rasagiline, R-(+)-N-propargyl-1-aminoindan]
IRLS Total (Absolute Change) Mean (RLS subjects [1]; VISIT WEEK 1, N=2): −3.00
IRLS Total (Absolute Change) Median (RLS subjects [1]; VISIT WEEK 1, N=2): −3.00
IRLS Total (Percent Change) Mean (RLS subjects [1]; VISIT WEEK 1, N=2): −11.54%
IRLS Total (Percent Change) Median (RLS subjects [1]; VISIT WEEK 1, N=2): −11.54%
IRLS Total Mean (RLS subjects [1]; VISIT WEEK 1, N=2): 29.00
IRLS Total Median (RLS subjects [1]; VISIT WEEK 1, N=2): 29.00
IRLS Total (Absolute Change) Mean (RLS subjects [1]; VISIT WEEK 3, N=1): −14.00
IRLS Total (Absolute Change) Median (RLS subjects [1]; VISIT WEEK 3, N=1): −14.00
IRLS Total (Percent Change) Mean (RLS subjects [1]; VISIT WEEK 3, N=1): −53.85%
IRLS Total (Percent Change) Median (RLS subjects [1]; VISIT WEEK 3, N=1): −53.85%
IRLS Total Mean (RLS subjects [1]; VISIT WEEK 3, N=1): 12.00
IRLS Total Median (RLS subjects [1]; VISIT WEEK 3, N=1): 12.00
IRLS Total (Absolute Change) Mean (RLS subjects [1]; VISIT WEEK 4, N=2): −6.50
IRLS Total (Absolute Change) Median (RLS subjects [1]; VISIT WEEK 4, N=2): −6.50
IRLS Total (Percent Change) Mean (RLS subjects [1]; VISIT WEEK 4, N=2): −25.00%
IRLS Total (Percent Change) Median (RLS subjects [1]; VISIT WEEK 4, N=2): −25.10%
IRLS Total Mean (RLS subjects [1]; VISIT WEEK 4, N=2): 25.50
IRLS Total Median (RLS subjects [1]; VISIT WEEK 4, N=2): 25.50
mean IRLS Rating Scale score (RLS subjects [1]; after 2 weeks, 2 subjects, baseline mean 32): 29
IRLS Rating Scale score (RLS subjects [1]; at 4 weeks, one subject): 13
decrease from baseline in IRLS Rating Scale score (RLS subjects [1]; at 4 weeks, one subject): 50%
IRLS score (RLS subjects [1]; by 8 weeks, remaining subject): 12
decrease from baseline in IRLS score (RLS subjects [1]; by 8 weeks, remaining subject): 54%
effect on the symptoms of RLS (RLS subjects [1]; in at least a subset of RLS patients): clinically significant effect
IRLS Rating Scale score (RLS subjects [1]; week 4, subject who discontinued, unchanged from baseline): 38
IRLS QoL Total (Absolute Change) Mean (RLS subjects [2]; VISIT WEEK 4, N=2): 16.67
IRLS QoL Total (Absolute Change) Median (RLS subjects [2]; VISIT WEEK 4, N=2): 16.67
IRLS QoL Total (Percent Change) Mean (RLS subjects [2]; VISIT WEEK 4, N=2): 35.19%
IRLS QoL Total (Percent Change) Median (RLS subjects [2]; VISIT WEEK 4, N=2): 35.19%
IRLS QoL Total Mean (RLS subjects [2]; VISIT WEEK 4, N=2): 62.92
IRLS QoL Total Median (RLS subjects [2]; VISIT WEEK 4, N=2): 62.92
IRLS QoL Total (Absolute Change) Mean (RLS subjects [2]; VISIT WEEK 8, N=1): 25.00
IRLS QoL Total (Absolute Change) Median (RLS subjects [2]; VISIT WEEK 8, N=1): 25.00
IRLS QoL Total (Percent Change) Mean (RLS subjects [2]; VISIT WEEK 8, N=1): 37.04%
IRLS QoL Total (Percent Change) Median (RLS subjects [2]; VISIT WEEK 8, N=1): 37.04%
IRLS QoL Total Mean (RLS subjects [2]; VISIT WEEK 8, N=1): 92.50
IRLS QoL Total Median (RLS subjects [2]; VISIT WEEK 8, N=1): 92.50
improvement in the IRLS Quality of Life Questionnaire compared to baseline (RLS subjects [2]; by eight weeks, remaining subject): 37%
IRLSSG values, change from starting value ([3]; 0.5 mg and 1 mg groups, in comparison with the placebo group): significant improvement
subjective symptoms (tingling, cramps and pain in the legs, restlessness, difficulties falling or remaining asleep) ([3]; end of treatment, both patient groups): either disappear or diminish to a tolerable minimum
hallucinations, somnolence, edema, nausea, vomiting or diarrhea ([3]; patient reports): does not or only to a very minimal extent causes
clinical improvement ([3]; patients in a moderate to severe stage of RLS): distinct clinical improvement
tolerability and safety ([3]; patients with moderate to severe RLS): well tolerated and safe
